Measured values reported in paper PMC9744290, “Two apicoplast dwelling glycolytic enzymes provide key substrates for metabolic pathways in the apicoplast and are critical for Toxoplasma growth” (PLOS Pathogens, 2022).

Biological target: T1, PGK2 (Toxoplasma gondii, UniProt A0A7J6KGR7)
T1 construct: gene TGRH88_001020; His-SUMO fusion, E. coli BL21(DE3), His-tag resin
T1 sequence (A0A7J6KGR7 1-593): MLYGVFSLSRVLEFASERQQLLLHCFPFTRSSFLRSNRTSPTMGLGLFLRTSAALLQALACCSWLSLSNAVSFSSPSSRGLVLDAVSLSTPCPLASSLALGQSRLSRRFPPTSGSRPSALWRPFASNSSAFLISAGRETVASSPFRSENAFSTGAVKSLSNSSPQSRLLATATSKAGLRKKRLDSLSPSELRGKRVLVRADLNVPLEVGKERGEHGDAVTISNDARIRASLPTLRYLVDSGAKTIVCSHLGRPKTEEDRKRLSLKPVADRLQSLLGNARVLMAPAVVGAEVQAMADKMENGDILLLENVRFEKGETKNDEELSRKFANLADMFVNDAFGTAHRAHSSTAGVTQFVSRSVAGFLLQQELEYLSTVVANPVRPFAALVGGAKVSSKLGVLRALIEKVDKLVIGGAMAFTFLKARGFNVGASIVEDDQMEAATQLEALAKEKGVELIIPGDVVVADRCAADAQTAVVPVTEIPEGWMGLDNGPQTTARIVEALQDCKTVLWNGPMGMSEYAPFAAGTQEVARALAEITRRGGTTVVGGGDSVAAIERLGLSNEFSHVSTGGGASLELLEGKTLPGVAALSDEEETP
Assay: NADH-coupled colorimetric PGK assay kit, OD340
Assay type: biochemical
Conditions: reverse direction of PGK; 0-960 uM substrate, 5 ug/ml enzyme, 2 min

O=C(O)[C@H](O)COP(=O)(O)O [3-phosphoglycerate]
NADH-coupled colorimetric PGK assay kit, OD340: assayed with recombinant enzymes under different concentrations of 3-phosphoglycerate (3-PG)
